Patent US12152038B2, “Vasopressin receptor antagonists and products and methods related thereto” (Neumora Therapeutics, Inc., priority 2017, dated 2024)

Columns and labels:
[1] = biological target: T1, human Oxytocin Receptor (hOTR) (Homo sapiens, UniProt P30559); assay: Oxytocin receptor (OTR) antagonist assay (FLIPR calcium, CHEM-1-hOTR cells); type: cell-based
T1 construct: host or cells: CHEM-1 (ready-to-assay frozen cells)
T1 sequence (P30559 1-389): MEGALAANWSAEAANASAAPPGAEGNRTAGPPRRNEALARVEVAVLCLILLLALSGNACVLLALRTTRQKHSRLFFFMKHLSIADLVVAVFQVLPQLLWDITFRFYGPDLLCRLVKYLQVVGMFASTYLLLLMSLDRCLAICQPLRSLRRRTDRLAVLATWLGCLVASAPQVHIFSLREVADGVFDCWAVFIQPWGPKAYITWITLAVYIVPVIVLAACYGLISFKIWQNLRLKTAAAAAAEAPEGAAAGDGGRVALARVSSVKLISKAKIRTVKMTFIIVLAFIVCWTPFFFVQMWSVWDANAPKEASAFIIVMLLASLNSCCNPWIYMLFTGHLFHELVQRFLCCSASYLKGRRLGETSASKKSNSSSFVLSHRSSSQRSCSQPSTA
How it was run: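 CHEM-1 cells expressing human OTR were loaded with Calcium-6 dye in HBSS/20 mM HEPES and preincubated with compound (10-point, 1:3 series) for 15 min at 37° C. Cells were then challenged with oxytocin at its daily-determined EC80. Calcium fluorescence was read on FLIPR for 3 min after each addition.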

[2] = Wild-type MDCK permeability and efflux assay (Papp, efflux ratio); type: in vitro ADME; details: dog, pH 7.4, wild-type MDCK cells; for efflux ratio at 1 h, 10 μM: Papp B>A/Papp A>B, read-out: ER WT (Efflux Ratio)
How it was run: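 Confluent WT or MDR1-MDCK monolayers (3-day culture) dosed with 10 μM compound, 0.1% DMSO, in HBSS/25 mM HEPES pH 7.4, A>B and B>A, 1 h at 37 °C; LC-MS/MS quantitation. Papp from acceptor/donor ratio; efflux ratio = Papp B>A/A>B; EER = ER(MDR1)/ER(WT).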

SMILES	IC50 [1] [µM]	Papp A→B at 1 h, 10 μM [2] [×10⁻⁶ cm/s]	efflux ratio at 1 h, 10 μM [2]
CCC1COc2cc(Cl)ccc2N1C(=O)N1CC2(C1)CN(c1ccc(F)cn1)C2 (single isomer, unassigned) [1-55-B]	< 0.1		
CC1COc2cc(Cl)ccc2N1C(=O)N1CC2(C1)CN(c1cnccn1)C2 (single isomer, unassigned) [1-58-B]	< 0.1	> 20	1 to 2
COc1ccc2c(c1)OCC(C)N2C(=O)N1CC2(C1)CN(c1ccc(F)cn1)C2 (single isomer, unassigned) [1-59-B]	0.1 to 0.5	> 20	< 1
CC1COc2cc(Cl)ccc2N1C(=O)N1CC2(C1)CN(c1ccccn1)C2 (single isomer, unassigned) [1-60-B]	< 0.1	> 20	< 1
CC1COc2cc(F)ccc2N1C(=O)N1CC2(C1)CN(c1cnccn1)C2 (single isomer, unassigned) [1-65-B]	0.1 to 0.5	> 20	1 to 2
CC1COc2cc(F)ccc2N1C(=O)N1CC2(C1)CN(c1ccccn1)C2 (single isomer, unassigned) [1-66-B]	0.1 to 0.5		
CC1COc2cc(F)ccc2N1C(=O)N1CC2(C1)CN(c1ncccc1F)C2 (single isomer, unassigned) [1-67-A]	0.1 to 0.5		
CC1COc2cc(Cl)ccc2N1C(=O)N1CC2(C1)CN(c1ccc(F)cn1)C2 (single isomer, unassigned) [1-73-B]	< 0.1		
O=C(N1CC2(C1)CN(c1ccc(F)cn1)C2)N1CCC(O)c2cc(Cl)ccc21 (single isomer, unassigned) [13-1-B]	≥ 1		
CC1COc2cc(Cl)ccc2N1C(=O)N1CC2(C1)CN(c1ncc(F)cn1)C2 (single isomer, unassigned) [18-2-B]	0.1 to 0.5	> 20	< 1
Cc1cnc(N2CC3(CN(C(=O)N4c5ccc(Cl)cc5OCC4C)C3)C2)nc1 (single isomer, unassigned) [20-13-B]		> 20	< 1
CC1COc2cc(Cl)ccc2N1C(=O)N1CC2(C1)CN(c1nn(C)c3ncccc13)C2 (single isomer, unassigned) [20-15-B]	0.5 to 1	> 20	< 1
Cc1cccc(N2CC3(CN(C(=O)N4CCOc5cc(Cl)ccc54)C3)C2)n1 [1-3]	0.5 to 1		
O=C(N1CC2(C1)CN(c1cnc(F)cn1)C2)N1CCOc2cc(Cl)ccc21 [1-18]		> 20	< 1
Cc1cncc(N2CC3(CN(C(=O)N4CCOc5cc(Cl)ccc54)C3)C2)n1 [1-22]	≥ 1	> 20	< 1
Cc1nc(N2CC3(CN(C(=O)N4CCOc5cc(Cl)ccc54)C3)C2)ccc1F [1-30]	0.5 to 1		
N#Cc1cccc(N2CC3(CN(C(=O)N4CCOc5cc(Cl)ccc54)C3)C2)n1 [1-39]	0.1 to 0.5		

SMILES	IC50 [1] [µM]	Papp A→B at 1 h, 10 μM [2] [×10⁻⁶ cm/s]	efflux ratio at 1 h, 10 μM [2]
O=C(N1CC2(C1)CN(c1cc(F)cc(F)n1)C2)N1CCOc2cc(Cl)ccc21 [1-51]	≥ 1		
CC1COc2cc(Cl)ccc2N1C(=O)N1CC2(C1)CN(c1ccccn1)C2 (stereo not shown) [1-60]	< 0.1	> 20	< 1
O=C(N1CC2(C1)CN(c1ccc(F)cn1)C2)N1CCOc2cc(F)ccc21 [1-64]		> 20	< 1
CC1COc2cc(F)ccc2N1C(=O)N1CC2(C1)CN(c1ncccc1F)C2 (stereo not shown) [1-67]	0.1 to 0.5		
O=C(N1CC2(C1)CN(c1cccc(F)n1)C2)N1CCOc2cc(Cl)ccc21 [1-69]	≥ 1		
O=C(N1CC2(C1)CN(c1cc(F)ccn1)C2)N1CCOc2cc(Cl)ccc21 [1-70]	≥ 1	> 20	1 to 2
O=C(N1CC2(C1)CN(c1cccnn1)C2)N1CCOc2cc(Cl)ccc21 [1-71]		> 20	< 1
O=C(N1CC2(C1)CN(c1cccnc1)C2)N1CCOc2cc(Cl)ccc21 [1-72]		> 20	< 1
CC1COc2cc(Cl)ccc2N1C(=O)N1CC2(C1)CN(c1noc3ccccc13)C2 (stereo not shown) [21-1, (6-(benzo[d]isoxazol-3-yl)-2,6-diazaspiro[3.3]heptan-2-yl)(7-chloro-3-methyl-2,3-dihydro-4H-benzo[b][1,4]oxazin-4-yl)methanone]	0.5 to 1	10 to 20	< 1
CC1COc2cc(Cl)ccc2N1C(=O)N1CC2(C1)CN(c1ncccc1C#N)C2 (stereo not shown) [21-2]	0.1 to 0.5	> 20	< 1
Cc1cncc(N2CC3(CN(C(=O)N4c5ccc(Cl)cc5OCC4C)C3)C2)n1 (stereo not shown) [21-3]	< 0.1	> 20	< 1
Cc1cnnc(N2CC3(CN(C(=O)N4c5ccc(Cl)cc5OCC4C)C3)C2)c1 (stereo not shown) [21-4]	0.5 to 1	> 20	1 to 2
CC1COc2cc(Cl)ccc2N1C(=O)N1CC2(C1)CN(c1ncncc1F)C2 (stereo not shown) [21-5]	0.1 to 0.5	> 20	1 to 2
CC1COc2cc(Cl)ccc2N1C(=O)N1CC2(C1)CN(c1ccncn1)C2 (stereo not shown) [21-6]	0.1 to 0.5	> 20	< 1
Cc1nccc(N2CC3(CN(C(=O)N4c5ccc(Cl)cc5OCC4C)C3)C2)n1 (stereo not shown) [21-8]	0.1 to 0.5	> 20	< 1
CCc1cnc(N2CC3(CN(C(=O)N4c5ccc(Cl)cc5OCC4C)C3)C2)nc1 (stereo not shown) [21-9]	≥ 1		
CC1COc2cc(Cl)ccc2N1C(=O)N1CC2(C1)CN(c1nccc(C(F)(F)F)n1)C2 (stereo not shown) [21-10]	0.5 to 1	10 to 20	1 to 2
